Measured values from PubChem BioAssay (NCI).
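These data come from cells grown in 96-well plates and exposed to compound for 48 hours at five concentrations. Abbreviation: GI50, concentration required for 50% inhibition of growth. Definition used: TGI = concentration required for complete inhibition of growth.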

Columns and labels:
Assay in all cases: growth of human tumour cells (NCI), 48 h
BT-549 breast = tested on: BT-549 breast
COLO 205 colon = tested on: COLO 205 colon
HT29 colon = tested on: HT29 colon
KM12 colon = tested on: KM12 colon
LOX IMVI melanoma = tested on: LOX IMVI melanoma
NCI-H23 lung = tested on: NCI-H23 lung
SNB-19 CNS = tested on: SNB-19 CNS
SNB-75 CNS = tested on: SNB-75 CNS
SR leukemia = tested on: SR leukemia
UO-31 renal = tested on: UO-31 renal

## NC(=O)c1ccc(I)c(N)c1
BT-549 breast
  GI50: > 100000 nM
  TGI: > 100000 nM
COLO 205 colon
  GI50: > 100000 nM
  TGI: > 100000 nM
HT29 colon
  GI50: > 100000 nM
  TGI: > 100000 nM
KM12 colon
  GI50: > 100000 nM
  TGI: > 100000 nM
LOX IMVI melanoma
  GI50: > 100000 nM
  TGI: > 100000 nM
NCI-H23 lung
  GI50: > 100000 nM
  TGI: > 100000 nM
SNB-19 CNS
  GI50: > 100000 nM
  TGI: > 100000 nM
SNB-75 CNS
  GI50: > 100000 nM
  TGI: > 100000 nM
SR leukemia
  GI50: > 100000 nM
  TGI: > 100000 nM
UO-31 renal
  GI50: > 100000 nM
  TGI: > 100000 nM

## O=C(N/N=C/c1ccccc1O)c1ccccc1Nc1ccnc(C(F)(F)F)c1
BT-549 breast
  GI50: 527 nM
  TGI: 59000 nM
COLO 205 colon
  GI50: 300 nM
  TGI: 41300 nM
HT29 colon
  GI50: 3320 nM
  TGI: 53500 nM
KM12 colon
  GI50: 484 nM
  TGI: 32700 nM
LOX IMVI melanoma
  GI50: 279 nM
  TGI: > 54700 nM
NCI-H23 lung
  GI50: 1330 nM
  TGI: > 44900 nM
SNB-19 CNS
  GI50: 1770 nM
  TGI: > 100000 nM
SNB-75 CNS
  GI50: 2250 nM
  TGI: 52200 nM
SR leukemia
  GI50: 197 nM
UO-31 renal
  GI50: 291 nM
  TGI: 3120 nM

## C=CC(=O)N1CC2(CCN(c3nc(OC4CCN(CCCOC)CC4)nc4c(OCC(F)(F)F)c(-c5c(C)ccc6[nH]ncc56)c(C5CC5)cc34)CC2)C1
BT-549 breast
  GI50: 2260 nM
  TGI: 5710 nM
COLO 205 colon
  GI50: 1970 nM
  TGI: 3730 nM
HT29 colon
  GI50: 2280 nM
  TGI: 5830 nM
KM12 colon
  GI50: 1960 nM
  TGI: 4040 nM
LOX IMVI melanoma
  GI50: 1700 nM
  TGI: 3150 nM
NCI-H23 lung
  TGI: 1950 nM
SNB-19 CNS
  GI50: 6890 nM
  TGI: 20100 nM
SNB-75 CNS
  GI50: 3830 nM
  TGI: 16800 nM
SR leukemia
  GI50: 1750 nM
  TGI: 4770 nM
UO-31 renal
  GI50: 1700 nM
  TGI: 3130 nM

## CC1=CC(=Nc2ccc(N(CCCl)CCCl)cc2)C=C(C)C1=O
BT-549 breast
  GI50: 1460 nM
  TGI: 3160 nM
COLO 205 colon
  GI50: 1490 nM
  TGI: 4670 nM
HT29 colon
  GI50: 1110 nM
  TGI: 4590 nM
KM12 colon
  GI50: 2640 nM
  TGI: 11300 nM
NCI-H23 lung
  GI50: 768 nM
  TGI: 4360 nM
SNB-19 CNS
  GI50: 2810 nM
  TGI: > 65800 nM
SNB-75 CNS
  GI50: 1000 nM
  TGI: 7870 nM
SR leukemia
  GI50: 288 nM
  TGI: > 33900 nM

## C=CCCCCCCCCC(=O)[O][Sn]([CH2]CCC)([CH2]CCC)[CH2]CCC
BT-549 breast
  GI50: 140 nM
  TGI: 277 nM
COLO 205 colon
  GI50: 172 nM
  TGI: 371 nM
HT29 colon
  GI50: 154 nM
  TGI: 332 nM
KM12 colon
  GI50: 145 nM
  TGI: 300 nM
LOX IMVI melanoma
  GI50: 138 nM
  TGI: 278 nM
NCI-H23 lung
  GI50: 115 nM
  TGI: 254 nM
SNB-19 CNS
  GI50: 198 nM
  TGI: 384 nM
SNB-75 CNS
  GI50: 134 nM
  TGI: 326 nM
UO-31 renal
  GI50: 132 nM
  TGI: 276 nM

## O=C(/C(Br)=C/c1ccccc1)c1ccccc1
BT-549 breast
  GI50: 2080 nM
  TGI: 4600 nM
COLO 205 colon
  GI50: 1090 nM
  TGI: 2410 nM
KM12 colon
  GI50: 7540 nM
  TGI: 21400 nM
LOX IMVI melanoma
  GI50: 433 nM
  TGI: 1590 nM
NCI-H23 lung
  GI50: 2710 nM
  TGI: 8380 nM
SNB-19 CNS
  GI50: 13100 nM
  TGI: 26100 nM
SNB-75 CNS
  GI50: 10600 nM
  TGI: 24200 nM
SR leukemia
  GI50: 1410 nM
  TGI: 8740 nM
UO-31 renal
  GI50: 1360 nM
  TGI: 3350 nM

## CC(C)(CC(=O)Nc1ccccc1)C(=O)O
BT-549 breast
  TGI: > 100000 nM
COLO 205 colon
  TGI: > 100000 nM
HT29 colon
  TGI: > 100000 nM
KM12 colon
  TGI: > 100000 nM
LOX IMVI melanoma
  TGI: > 100000 nM
NCI-H23 lung
  TGI: > 100000 nM
SNB-19 CNS
  TGI: > 100000 nM
SR leukemia
  TGI: > 100000 nM
UO-31 renal
  TGI: > 100000 nM
